Patent US20170158702A1, “MULTIVALENT RAS BINDING COMPOUNDS” (KYRAS THERAPEUTICS, INC., priority 2015, published 2017)
Counter-ions that a name gives are not always drawn.

Legend:
Type in all cases: cell-based
NCI-H460 = test: Viability assay with NCI-H460 (CellTiter-Glo cytotoxicity assay, 72 h); settings: NCI-H460 cell line, 72 h after compounds addition
Method in brief: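 NCI-H460 cells, RPMI 1640 + 10% FBS, seeded 1200/well and adhered overnight, then exposed to compounds at 9 points, 2-fold dilution, in triplicate, 0.5% DMSO final. Cellular ATP measured by CellTiter-Glo luminescence 72 h after addition.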

MIA PaCa-2 = test: Viability assay with MIA PaCa-2; settings: MIA PaCa-2, viability assay per Example 57
Method in brief: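 MIA PaCa-2 cells were seeded at 1200/well, allowed to adhere overnight, then treated in triplicate with 9-point 2-fold compound dilutions at 0.5% final DMSO. Viability was measured as cellular ATP by CellTiter-Glo luminescence 72 h after compound addition.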

HT-29 = test: Viability assay with HT-29; settings: HT-29, viability assay per Example 57
Procedure: NCI-H460 (Epithelial lung tissue; carcinoma; large cell lung cancer) were cultured in RPMI Medium 1640 (Invitrogen-22400105) supplemented with 10% fetal bovine serum (FBS; Invitrogen-10099141). All the cell lines were maintained in a humidified incubator at 37° C. with 5% CO2. Cell culture media and supplements were purchased from Invitrogen, and tissue culture flasks were purchased from Corning, 96-well plates were purchased from Greiner. CellTiter-Glo Luminescent Cell Viability Assay kits were purchased from Promega (Promega-G7573), cells counter Vi-Cell was purchased from Beckman, D300e digital dispenser was purchased from Tecan, detection instrument Envision was purchased from PerkinElmer.
Paclitaxel was purchased from SELLECK, test compounds, such as any one of the compounds disclosed herein, attained solubility in DMSO and when diluted into culture media. DMSO, solutions containing the test compounds, and culture media were warmed to 37° C. or room temperature for the solution preparation and dilutions.
NCI-H460 Cell line were seeded in 96-well plates (1200/well) and allowed to adhere to overnight (100 uL/well), for drug treatments with 2 fold dilution, 9 dose points, triplicates or vehicle control, compound stock solutions were prepared in DMSO and use D300e digital dispenser to add compounds to the wells to give the indicated final drug concentrations. Final DMSO concentration was 0.5%. Cellular ATP concentrations were assessed by using the CellTiter-Glo Cell Viability Assay as per the manufacturer's instructions 72 h after compounds addition. Additional cells lines were assayed with any one of the compounds disclosed herein according to the procedures described for the viability assay with NCI-H460.
A viability assay with HT-29 (Colorectal adenocarcinoma) was performed with compounds listed in Table 18 according to the procedures described in Example 57.

| EC50 (MIA PaCa-2) | EC50 (HT-29) | SMILES | EC50 (NCI-H460) |
| --- | --- | --- | --- |
| 5 to 10 µM | 5 to 10 µM | Cc1ncc(CN2CCN(Cc3ccc4c(c3)c(-c3ccc(OC(F)(F)F)cc3)cn4CCCN)CC2)n1C [C194; HCl] | 5 to 10 µM |
| 5 to 10 µM | 5 to 10 µM | NCCCn1cc(-c2ccc(OC(F)(F)F)cc2)c2cc(OC3CCN(Cc4ccccc4Cl)CC3)ccc21 [C242; HCl] | 5 to 10 µM |
| 5 to 10 µM | 5 to 10 µM | NCCCn1cc(-c2ccc(OC(F)(F)F)cc2CN)c2cc(CN3CCCC(N)C3)ccc21 (stereo not drawn) [C259; HCl] | 5 to 10 µM |
| ≤ 5 µM | ≤ 5 µM | CC(=O)NCc1cc(OC(F)(F)F)ccc1-c1cn(CCCN)c2ccc(CN3CCN(Cc4ccccc4Cl)CC3)cc12 [C271; HCl] | ≤ 5 µM |
| ≤ 5 µM | ≤ 5 µM | NCCCn1cc(-c2ccc(OC(F)(F)F)cc2)c2cc(CN3CCN(Cc4ccn[nH]4)CC3)ccc21 [C187; HCl] | ≤ 5 µM |
| ≤ 5 µM | ≤ 5 µM | CC(C)(N)CCCn1cc(-c2ccc(OC(F)(F)F)cc2CN)c2cc(CN3CCN(Cc4ccccc4Cl)CC3)ccc21 [C251; HCl] | ≤ 5 µM |
| 5 to 10 µM | 5 to 10 µM | NCCCn1cc(-c2cc[nH]n2)c2cc(CN3CCN(Cc4ccccc4Cl)CC3)ccc21 [C190; HCl] | 5 to 10 µM |
| 5 to 10 µM | 5 to 10 µM | NCCCn1cc(-c2ccc(OC(F)(F)F)cc2CN)c2cc(CN3CCC(O)CC3)ccc21 [C290; HCl] | 5 to 10 µM |
| ≤ 5 µM | ≤ 5 µM | COc1cc(CN(C)CCN(C)Cc2ccc3c(c2)c(-c2ccc(OC(F)(F)F)cc2CN)cn3CCCN)cc(OC)c1 [C297; HCl] | ≤ 5 µM |
| 5 to 10 µM | 5 to 10 µM | COc1ccc(-n2c(=O)n(CCCN)c3ccc(CN4CCN(Cc5ccccc5Cl)CC4)cc32)cc1 [C200; HCl] | 5 to 10 µM |
| ≤ 5 µM | ≤ 5 µM | NCc1cc(OC(F)(F)F)ccc1-c1cn(CC2CCNCC2)c2ccc(CN3CCN(Cc4ccccc4Cl)CC3)cc12 [C237; HCl] | ≤ 5 µM |
| ≤ 5 µM | ≤ 5 µM | NCCCn1cc(-c2ccc(OC(F)(F)F)cc2CN)c2cc(CN3CCC4(CCCN(Cc5ccccc5Cl)C4)CC3)ccc21 [C253; HCl] | ≤ 5 µM |
| ≤ 5 µM | 5 to 10 µM | CCC1CCN(Cc2ccc3c(c2)c(-c2ccc(OC)cc2CN)cn3CCCN)CC1 [C255; HCl] | 5 to 10 µM |
| 5 to 10 µM | ≤ 5 µM | COc1ccccc1CN1CCN(Cc2ccc3c(c2)c2ccccc2n3CCCN)CC1 [C268; HCl] | 5 to 10 µM |
| ≤ 5 µM | ≤ 5 µM | NCCCn1cc(-c2ccc(OC(F)(F)F)cc2)c2cc(CN3CCC(CC(F)(F)F)CC3)ccc21 [C130; HCl] | ≤ 5 µM |
| ≤ 5 µM | ≤ 5 µM | NC1(C(=O)NCCCn2nc(-c3ccc(OC(F)(F)F)cc3)c3cc(CN4CCN(Cc5ccccc5Cl)CC4)ccc32)CCNCC1 [C201; HCl] | ≤ 5 µM |
| ≤ 5 µM | ≤ 5 µM | CN(CCN(C)C(=O)c1ccc2c(c1)c(-c1ccc(OC(F)(F)F)cc1)cn2CCCN)Cc1ccccc1Cl [C193; HCl] | ≤ 5 µM |
| ≤ 5 µM | ≤ 5 µM | NC1CCC(n2cc(-c3ccc(OC(F)(F)F)cc3)c3cc(CN4CCN(Cc5ccccc5Cl)CC4)ccc32)CC1 (stereo not drawn) [C212; HCl] | ≤ 5 µM |
| ≤ 5 µM | ≤ 5 µM | FC(F)(F)Oc1ccc(-c2cn(C3CCNCC3)c3ccc(CN4CCC(Cc5ccccc5Cl)CC4)cc23)cc1 [C225; HCl] | ≤ 5 µM |
| ≤ 5 µM | ≤ 5 µM | NCCCn1cc(-c2ccc(OC(F)(F)F)cc2)c2cc(CN3CCN(Cc4ccc(Cl)c(Cl)c4)CC3)ccc21 [C138; HCl] | ≤ 5 µM |
| ≤ 5 µM | ≤ 5 µM | NC1CCC(n2cc(-c3ccc(OC(F)(F)F)cc3)c3cc(CN4CCN(Cc5ccccc5Cl)CC4)ccc32)C1 (stereo not drawn) [C134; HCl] | ≤ 5 µM |
| ≤ 5 µM | ≤ 5 µM | CCC1CCN(Cc2ccc3c(c2)c(-c2ccc(OC(F)(F)F)cc2CN)cn3CCCN)CC1 [C261; HCl] | ≤ 5 µM |

The remaining lines, values behind:

| SMILES | EC50 (MIA PaCa-2) | EC50 (HT-29) | EC50 (NCI-H460) |
| --- | --- | --- | --- |
| COc1cc(CN2CCN(Cc3ccc4c(c3)c(-c3ccc(OC(F)(F)F)cc3CN)cn4C3CCNCC3)CC2)cc(OC)c1 [C275; HCl] | ≤ 5 µM | ≤ 5 µM | ≤ 5 µM |
| NCCCn1cc(-c2ccc(OC(F)(F)F)cc2)c2cc(CN3CCS(=O)(=O)CC3)ccc21 [C292; Formic Acid] | ≤ 5 µM | 5 to 10 µM | ≤ 5 µM |
| COc1ccc(CN2CCN(Cc3ccc4c(c3)c(-c3ccc(OC(F)(F)F)cc3CN)cn4CCCN)CC2)cc1 [C266; HCl] | ≤ 5 µM | ≤ 5 µM | ≤ 5 µM |
| NCCCn1cc(-c2ccc(OC(F)(F)F)cc2)c2cc(CN3CCC(Nc4ccc(Cl)cc4)CC3)ccc21 [C210; HCl] | ≤ 5 µM | ≤ 5 µM | ≤ 5 µM |
| NCCCn1cc(-c2cccc(C(N)=O)c2)c2cc(CN3CCN(Cc4ccccc4Cl)CC3)ccc21 [C179; HCl] | ≤ 5 µM | ≤ 5 µM | ≤ 5 µM |
| NCCCn1cc(-c2ccc(OC(F)(F)F)cc2CN)c2cc(CN3CCNC(=O)C3)ccc21 [C258; Formic Acid] | 5 to 10 µM | 5 to 10 µM | 5 to 10 µM |
| Cn1nccc1CN1CCN(Cc2ccc3c(c2)c(-c2ccc(OC(F)(F)F)cc2)cn3CCCN)CC1 [C128; HCl] | ≤ 5 µM | ≤ 5 µM | ≤ 5 µM |
| Cc1cccnc1CN1CCN(Cc2ccc3c(c2)c(-c2ccc(OC(F)(F)F)cc2)cn3CCCN)CC1 [C145; HCl] | ≤ 5 µM | ≤ 5 µM | ≤ 5 µM |
| Cc1ccc(-c2cn(CCCN)c3ccc(CC4CCN(Cc5ccccc5Cl)CC4)cc23)c(CN)c1 [C269; Formic Acid] | ≤ 5 µM | ≤ 5 µM | ≤ 5 µM |
| Cc1ccc(-c2cn(CCCN)c3ccc(CN4CCN(Cc5ccccc5Cl)CC4)cc23)c(CN)c1 [C223; HCl] | ≤ 5 µM | ≤ 5 µM | ≤ 5 µM |
| NCCCn1cc(-c2ccc(OC(F)(F)F)cc2)c2cc(S(=O)(=O)N3CCN(Cc4ccccc4Cl)CC3)ccc21 [C153; Formic Acid] | ≤ 5 µM | ≤ 5 µM | ≤ 5 µM |
| NCCCn1cc(-c2ccc(OC(F)(F)F)cc2)c2cc(Nc3ccc(Nc4ccccc4Cl)nc3)ccc21 [C246; Formic Acid] | 5 to 10 µM | 10 to 30 µM | 5 to 10 µM |
| Cc1ncc(CN2CCN(Cc3ccc4c(c3)c(-c3ccc(OC(F)(F)F)cc3)cn4CCCN)CC2)[nH]1 [C195; HCl] | 5 to 10 µM | 5 to 10 µM | 5 to 10 µM |
| FC(F)(F)Oc1ccc(-c2cn(C3CCNCC3)c3ccc(CN4CCN(Cc5ccccc5Cl)CC4)cc23)cc1 [C170; HCl] | ≤ 5 µM | ≤ 5 µM | ≤ 5 µM |
| NCCCn1cc(-c2ccc(OC(F)(F)F)cc2)c2c(CN3CCN(Cc4ccc(OC(F)(F)F)cc4)CC3)cccc21 [C186; HCl] | 5 to 10 µM | 5 to 10 µM | 5 to 10 µM |
| CCC1CCN(S(=O)(=O)c2ccc3c(c2)c(-c2ccc(OC)cc2CN)cn3CCCN)CC1 [C270; HCl] | ≤ 5 µM | ≤ 5 µM | ≤ 5 µM |
| FC(F)(F)Oc1ccc(-c2cn(CCCNc3ccccn3)c3ccc(CN4CCN(Cc5ccccc5Cl)CC4)cc23)cc1 [C208; Formic Acid] | 5 to 10 µM | 5 to 10 µM | ≤ 5 µM |
| CNCc1cc(OC(F)(F)F)ccc1-c1cn(CCCN)c2ccc(CN3CCN(Cc4ccccc4Cl)CC3)cc12 [C238; HCl] | ≤ 5 µM | ≤ 5 µM | ≤ 5 µM |
| NCCCn1cc(-c2ccc(OC(F)(F)F)cc2CN)c2cc(CN3CCOCC3)ccc21 [C265; HCl] | ≤ 5 µM | ≤ 5 µM | ≤ 5 µM |
| NCCCn1cc(-c2ccc(OC(F)(F)F)cc2CN)c2cc(CN3CCN(Cc4cccc(OC(F)(F)F)c4)CC3)ccc21 [C267; HCl] | ≤ 5 µM | ≤ 5 µM | ≤ 5 µM |
| NCCCn1cc(-c2ccc(OC(F)(F)F)cc2)c2cc(CN3CCN(Cc4ccc(C(F)(F)F)cc4)CC3)ccc21 [C136; HCl] | ≤ 5 µM | ≤ 5 µM | ≤ 5 µM |
| NCCCn1cc(-c2ccc(OC(F)(F)F)cc2CN)c2cc(CN3CCCC(NCC(F)(F)F)C3)ccc21 (stereo not drawn) [C276; HCl] | 5 to 10 µM | 5 to 10 µM | ≤ 5 µM |
| COc1ccc(-c2cn(CCCN)c3ccc(CN4CCN(Cc5ccccc5Cl)CC4)cc23)cn1 [C141; HCl] | ≤ 5 µM | ≤ 5 µM | ≤ 5 µM |
